Patent US20250214979A1, “COMPOUNDS FOR TREATING PSYCHOSTIMULANT MISUSE” (University of Florida Research Foundation, Incorporated, priority 2022, published 2025)
Read-outs that look alike come from different tables or passages of the source.

Experiments:
sigma 2 (h) = molecular target: T1, sigma 2 (h) (Homo sapiens, UniProt Q5BJF2); test: sigma 2 (h) agonist radioligand binding assay ([3H]DTG); details: Sigma 2 Receptor, 1.00E−06 M
T1 construct: endogenous; endogenous in cells; host or cells: Jurkat cells
Description: (§1) 12 compounds in binding assays (either sigma 1 or sigma 2 receptors) at 1.0×10^−6 M. Compound binding was calculated as a % inhibition of the binding of a ligand specific for each target.
(§2) The results are expressed as a percent of control specific binding: [(measured specific binding)/(control specific binding)]*100 and as a percent inhibition of control specific binding: 100−{[(measured specific binding)/(control specific binding)]*100}, obtained in the presence of the test compounds.
(§3) The IC50 values (concentration causing a half-maximal inhibition of control specific binding) and Hill coefficients (nH) were determined by non-linear regression analysis of the competition curves generated with mean replicate values using Hill equation curve fitting: Y={D+[(A−D)/(1+(C/C50)^nH)]} (where Y=specific binding, A=left asymptote of the curve, D=right asymptote of the curve, C=compound concentration, C50=IC50, and nH=slope factor). This analysis was performed using software developed at Cerep (Hill software) and validated by comparison with data generated by the commercial software SigmaPlot® 4.0 for Windows® (© 1997 by SPSS Inc.). The inhibition constants (Ki) were calculated using the Cheng Prusoff equation: Ki=(IC50)/(1+L/KD) (where L=concentration of ligand in the assay, and KD=affinity of the ligand for the receptor).

dopamine transporter (h) = molecular target: T2, dopamine transporter (h) (Homo sapiens, UniProt Q01959); test: dopamine transporter (h) antagonist radioligand binding assay ([3H]BTCP); details: 1.00E−06 M
T2 construct: expressed in transfected cells; host or cells: CHO cells
Description: [The source words this procedure for another target and reports this target under the same test.] as §1, §2, §3

sigma 1 (h) = molecular target: T3, sigma 1 (h) (Homo sapiens, UniProt Q99720); test: sigma 1 (h) agonist radioligand binding assay ([3H](+)pentazocine); details: Sigma 1 Receptor, 1.00E−06 M
T3 construct: endogenous; endogenous in cells; host or cells: Jurkat cells
Description: as §1, §2, §3

[1] = 1st, read-out: % Inhibition of Control Specific Binding, 1st
[2] = 2nd, read-out: % Inhibition of Control Specific Binding, 2nd
[3] = read-out: % Inhibition of Control Specific Binding, 3rd

T3 sequence (Q99720 whole entry): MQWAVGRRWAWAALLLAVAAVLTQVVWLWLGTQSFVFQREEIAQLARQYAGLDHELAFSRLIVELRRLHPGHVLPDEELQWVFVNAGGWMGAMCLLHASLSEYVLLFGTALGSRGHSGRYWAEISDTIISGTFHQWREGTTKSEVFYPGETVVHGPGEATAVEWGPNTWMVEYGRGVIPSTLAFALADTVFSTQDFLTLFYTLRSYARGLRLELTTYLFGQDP
T1 sequence (Q5BJF2 whole entry): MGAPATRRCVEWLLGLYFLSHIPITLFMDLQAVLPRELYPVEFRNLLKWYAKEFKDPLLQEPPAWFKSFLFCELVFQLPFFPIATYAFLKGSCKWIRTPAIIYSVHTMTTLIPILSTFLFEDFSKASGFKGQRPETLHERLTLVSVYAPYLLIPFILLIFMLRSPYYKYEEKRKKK
T2 sequence (Q01959 whole entry): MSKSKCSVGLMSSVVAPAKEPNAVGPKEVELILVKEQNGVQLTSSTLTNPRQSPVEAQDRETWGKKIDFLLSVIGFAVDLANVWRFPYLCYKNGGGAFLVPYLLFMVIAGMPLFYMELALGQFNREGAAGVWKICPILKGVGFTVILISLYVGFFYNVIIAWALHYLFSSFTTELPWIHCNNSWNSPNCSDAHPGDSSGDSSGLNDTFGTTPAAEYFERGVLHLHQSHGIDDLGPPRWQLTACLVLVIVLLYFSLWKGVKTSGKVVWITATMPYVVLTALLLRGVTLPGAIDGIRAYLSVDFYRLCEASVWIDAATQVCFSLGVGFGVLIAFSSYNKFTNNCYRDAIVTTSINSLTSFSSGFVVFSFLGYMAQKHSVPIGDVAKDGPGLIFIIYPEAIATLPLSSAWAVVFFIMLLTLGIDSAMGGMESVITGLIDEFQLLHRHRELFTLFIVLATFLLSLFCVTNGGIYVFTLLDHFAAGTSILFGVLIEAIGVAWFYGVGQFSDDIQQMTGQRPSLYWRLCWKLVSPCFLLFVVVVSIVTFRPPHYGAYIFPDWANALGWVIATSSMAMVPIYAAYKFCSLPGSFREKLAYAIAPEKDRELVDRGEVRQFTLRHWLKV

| SMILES | inhibition at 1 µM (sigma 2 (h); [1]) | inhibition at 1 µM (sigma 2 (h); [2]) | inhibition at 1 µM (sigma 2 (h); [3]) | inhibition at 1 µM (dopamine transporter (h); [1]) | inhibition at 1 µM (dopamine transporter (h); [2]) | inhibition at 1 µM (dopamine transporter (h); [3]) | inhibition at 1 µM (sigma 1 (h); [1]) | inhibition at 1 µM (sigma 1 (h); [2]) | inhibition at 1 µM (sigma 1 (h); [3]) |
| --- | --- | --- | --- | --- | --- | --- | --- | --- | --- |
| O=C1COCc2ccccc2N1CCCCN1CCN(c2cccc(Cl)c2)CC1 [SMB108, 1-(4-(4-(3-Chlorophenyl)piperazin-1-yl)butyl)-1,5-dihydrobenzo[e][1,4]oxazepin-2(3H)-one] | 95% | 99.8% | 97.4% | 28.3% | 25.9% | 27.1% | 93.8% | 95.4% | 94.6% |
| O=C1CSCc2ccccc2N1CCCCN1CCN(c2ccccc2Cl)CC1 [STG192] | 56.6% | 43.4% | 50% | 12.6% | 4.3% | 8.5% | 53.5% | 53.2% | 53.3% |
| O=C1CCCc2ccccc2N1CCCCN1CCN(c2ccc(Cl)cc2)CC1 [STG188] | 82.9% | 85.9% | 84.4% | 26.5% | 23.2% | 24.8% | 98.8% | 99.2% | 99% |
| O=C1CSCc2ccccc2N1CCCCN1CCC2(CC1)OCc1ccccc12 [STG187] | 96.5% | 108% | 102% | 12.9% | 13.1% | 13% | 93.6% | 98.9% | 96.3% |
| Cn1c(=O)n(CCCCN2CCC3(CC2)OCc2ccccc23)c2ccccc21 [CM699, reference compound] | 88% | 95.9% | 92% | 18.6% | 23.2% | 20.9% | 95.6% | 94% | 94.8% |
| O=C1COCc2ccccc2N1CCCCN1CCC2(CC1)OCc1ccccc12 [STG135, 1-(4-(3H-spiro[isobenzofuran-1,4′-piperidin]-1′-yl)butyl)-1,5-dihydrobenzo[e][1,4]oxazepin-2(3H)-one] | 106% | 84.4% | 95.2% | 6% | 3.5% | 4.8% | 97.9% | 94.5% | 96.2% |
| O=C1CSCc2ccccc2N1CCCCN1CCN(c2ccc(Cl)cc2)CC1 [STG190] | 96.4% | 95.5% | 95.9% | 9.2% | 14.8% | 12% | 101% | 101% | 101% |
| O=C1CCCc2ccccc2N1CCCCN1CCN(c2cccc(Cl)c2)CC1 [SMB107, 1-(4-(4-(3-Chlorophenyl)piperazin-1-yl)butyl)-1,3,4,5-tetrahydro-2H-benzo[b]azepin-2-one] | 104% | 98.7% | 101% | 24.6% | 24.4% | 24.5% | 96.7% | 97.6% | 97.1% |
| O=C1CCCc2ccccc2N1CCCCN1CCN(c2ccccc2Cl)CC1 [STG158] | 93.2% | 100% | 96.7% | -5.6% | -2.8% | -4.2% | 95.7% | 93.8% | 94.7% |
| O=C1CCCc2ccccc2N1CCCCN1CCC2(CC1)OCc1ccccc12 [STG136, 1-(4-(3H-spiro[isobenzofuran-1,4′-piperidin]-1′-yl)butyl)-1,3,4,5-tetrahydro-2H-benzo[b]azepin-2-one] | 90.3% | 100% | 95.3% | 7.9% | 11.4% | 9.7% | 98.8% | 98.4% | 98.6% |
| O=C1CSCc2ccccc2N1CCCCN1CCN(c2cccc(Cl)c2)CC1 [STG191] | 86.2% | 102% | 94.4% | 21.8% | 27.6% | 24.7% | 98.6% | 98.5% | 98.6% |
| O=C1COCc2ccccc2N1CCCCN1CCN(c2ccc(Cl)cc2)CC1 [STG189] | 82.2% | 78.2% | 80.2% | 8.6% | 5.1% | 6.8% | 92.8% | 93.6% | 93.2% |
